The values that follow come from article PMC3988166 (PLoS ONE, 2014).

Where two headings read alike, the source gives them in different places.

Data set [1] in a line: Caco-2 cell permeability assay in the presence of phlorizin (inhibitor for SGLT1). The format is in vitro ADME, human. To be noted: Caco-2 cell monolayer, 200 µM compound + 100 µM phlorizin, n = 3; read-out: P app, Phlorizin. Here is the method:
(§1) Permeability experiments (as described above) were conducted to investigate whether the compounds used the sugar transporters SGLT1 or GLUT2 for their transport across cell membranes. Samples containing 200 µM test compound and 100 µM phlorizin (inhibitor for SGLT1) or 100 µM phloretin (inhibitor for GLUT2) in HBSS-HEPES buffer were added to the apical chamber. […] P app values for each compound were then calculated as above.
(In general: Caco-2 monolayers are a common model of the intestinal barrier.)

For a further data set, the target named is T1, Recombinant human ASGPR (Homo sapiens, UniProt P07306).
T1 construct: purchased Sino Biological Inc. (Beijing, China)
T1 sequence (P07306 62-291 limits assumed): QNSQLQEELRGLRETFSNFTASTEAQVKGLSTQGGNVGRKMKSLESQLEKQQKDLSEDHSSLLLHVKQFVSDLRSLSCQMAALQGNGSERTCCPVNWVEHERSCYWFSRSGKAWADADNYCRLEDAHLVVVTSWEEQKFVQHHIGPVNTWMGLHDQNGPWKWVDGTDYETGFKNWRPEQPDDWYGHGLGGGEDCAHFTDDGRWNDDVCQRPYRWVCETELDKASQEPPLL
The experiment in a line: biochemical. The format is binding. Here is the method: SPR experiments were performed on a Biacore T100 (GE Healthcare, Little Chalfont, UK) at 25°C. Recombinant human ASGPR (the subunit of ASGPR that contains the carbohydrate binding site) used was from Sino Biological Inc. (Beijing, China). The receptor was immobilized onto a series S sensor chip CM5 (GE Healthcare, Little Chalfont, UK) using the N-hydroxysuccinimide (NHS) capture kit (GE Healthcare, Little Chalfont, UK).
Recombinant human ASGPR was immobilized onto a series S sensor chip CM5 using the NHS capture kit, where ASGPR was covalently linked to the surface of the chip via free amine groups. Compounds were tested at 10–1000 µM concentrations using multi-cycle kinetics with at least three experiments performed for each interaction. Single cycle kinetics was applied to optimize concentrations prior to completion of multi-cycle kinetics as described by Dumont et al.. […] The running buffer for all SPR experiments was 20 mM HEPES, pH 7.4, 150 mM NaCl, 5 mM CaCl2, and 0.005% TWEEN 20.

Data set [2] is described as follows: Caco-2 cell permeability assay. The conditions noted are these: Caco-2; for Papp A→B at 150 min, 200 µM: human. As to the method: (§2) Human colorectal adenocarcinoma cells (Caco-2 cells) were obtained from the American Type Culture Collection, Rockville, USA. A Branson Sonifier 250 (Branson Ultrasonics, Danbury, USA) was used to lyse the cells for stability experiments. Protein content was measured using the BioRad protein assay kit (BioRad, Hercules, USA). TPP 96-well plates for stability assays were purchased from Sigma Aldrich (Castle Hill, Australia). For permeability studies Caco-2 cell monolayers were grown in 24 well plates with Transwell polycarbonate cell culture inserts (pore size 0.4 µm, diameter 6.5 mm) from Corning Incorporated (New York, USA). A Millicell-ERS epithelial Transep volt-ohmmeter system (EMD Millipore Corporation, Billerica, USA) was used to measure the transepithelial electrical resistance (TEER) values of the cells. Scintillation counting was carried out using Liquid Scintillation Systems from Beckman Coulter (Brea, USA).
(§3) A cell suspension of Caco-2 cells in the cell culture medium was adjusted to a cell density of 1×10^6 cells/mL before being aliquoted (100 µL) into Transwell polycarbonate cell culture inserts in a 24-well plate, while 600 µL of media was added to the basolateral chamber. The culture medium was changed every other day for 21–28 days. TEER values were measured before and after the assay, to determine the integrity of tight junctions of the cell monolayers. […] Cell monolayers were washed with pre-warmed HBSS–HEPES and incubated for 30 min at 37°C. Test compounds and the control propanolol, were prepared in HBSS–HEPES buffer to a final concentration of 200 µM. After incubation, buffer in the apical chamber was removed and replaced with 100 µL aliquots of each of the test compounds. […] The concentration of the peptide in the collected samples was determined using LC-MS analysis as described for the stability assay above. Radioactivity of the [^14C]-D-mannitol samples was quantified by liquid scintillation counting (Liquid Scintillation Systems).
(§4) The apparent permeability (Papp, cm/s) of each compound was calculated using the following equation: [drawing 1]
(§5) Where dC/dt is the steady-state rate of change in the test item concentration (M/s) or radiochemical concentration (dpm mL/s) in the receiver chamber, Vr is the volume of the receiver chamber (mL), A is the surface area of the cell monolayers and C0 is the initial concentration in the donor chamber (M or dpm/mL).
(§6) The average Papp values (±S.D.) from three replicates is presented.

Data set [3] in a line: Caco-2 cell permeability assay in the presence of phloretin (inhibitor for GLUT2). To be noted: Caco-2 cell monolayer, 200 µM compound + 100 µM phloretin, n = 3; read-out: P app, Phloretin. The data set is classed as in vitro ADME, human. Here is the method:
as §1

Another data set can be described thus: Plasma stability assay. The data set is classed as in vitro ADME. To be noted: human, after incubation at 37°C for 120 min, read-out: % remained in human plasma. As to the method:
Blood sample collection from a healthy and consenting human adult for this study was approved by and conducted according to the guidelines set by The University of Queensland Medical Research Ethics Committee (approval number: 2009000661). Written consent was obtained prior to the collection of blood samples. Plasma was isolated from fresh-heparin treated blood by centrifugation at 660×g for 15 min. […] Compounds (300 µL) were mixed with 300 µL of the plasma, pre-warmed at 37°C and incubated at 37°C. Samples (50 µL) were collected at predetermined time points (0, 5, 10, 20, 30, 40, 60, 90 and 120 min), and added into 75 µL ACN to precipitate the plasma proteins. Samples were then centrifuged at 7300×g for 10 min.

The next data set relates to Caco-2 cell monolayers. The experiment in a line: Caco-2 cell permeability assay. Here is the method:
as §2, §3, §4, §5, §6

Data set [4] concerns the target Leu-enkephalin (Homo sapiens). The experiment in a line: SPR. In general terms: In SPR one partner is held on a chip, and binding of the other changes the refractive index at the surface.
Data set [5] has as its target Gal-Lac-Enk (Homo sapiens). The experiment in a line: SPR.
For the next data set, the target named is Lac-Enk (Homo sapiens). The experiment in a line: SPR.
A further data set concerns the target Gal-Enk (Homo sapiens). The experiment in a line: SPR.

`CC(C)C[C@H](NC(=O)[C@H](Cc1ccccc1)NC(=O)CNC(=O)CNC(=O)[C@H](Cc1ccc(O)cc1)NC(=O)CCC(=O)N[C@@H]1O[C@H](CO)[C@H](O)[C@H](O)[C@H]1O)C(N)=O` [Gal-Enk, N^1-Leu-enkephalin-N^4-(β-D-galactopyranosyl)succinamide]: in data set [1], the Papp A→B was 1.18 ± 0.276 ×10⁻⁶ cm/s. Moreover, on Recombinant human ASGPR, the off-rate constant (koff) (in general, the first-order rate constant of dissociation) came out at 0.072 ± 0.025 s⁻¹ and the on-rate (kon) (usually a measure of how fast the partners come together) was 328 ± 84.8 M⁻¹ s⁻¹. The Kd (commonly the concentration at which binding is half-saturated) on Recombinant human ASGPR (KD) was 219 ± 164 µM. For the same molecule, the Papp A→B at 150 min, 200 µM in [2] was found to be 0.798 ± 0.203 ×10⁻⁶ cm/s. For the same molecule, in data set [3], the Papp A→B stood at 1.58 ± 0.723 ×10⁻⁶ cm/s. Further, the remaining at 2 h, 0.5 mg/mL in the data set “Plasma stability assay” was roughly 60%.
With `CC(C)NCC(O)COc1cccc2ccccc12` (stereo not drawn) [propanolol, reference compound], in data set [2], the Papp A→B at 150 min, 200 µM is 134 ×10⁻⁶ cm/s.
On to `CC(C)C[C@H](NC(=O)[C@H](Cc1ccccc1)NC(=O)CNC(=O)CNC(=O)[C@H](Cc1ccc(O)cc1)NC(=O)CCC(=O)N[C@@H]1O[C@H](CO)[C@@H](O[C@@H]2O[C@H](CO)[C@H](O)[C@H](O)[C@H]2O)[C@H](O)[C@H]1O)C(N)=O` [Lac-Enk, N^1-Leu-enkephalin-N^4-(β-D-galactopyranosyl-(1→4)-β-D-glucopyranosyl)succinamide], for which the values for the Papp A→B in data set [1], in data set [2] and in data set [3] were 0.711 ± 0.145 ×10⁻⁶ cm/s, 1.72 ×10⁻⁶ cm/s and 0.921 ± 0.084 ×10⁻⁶ cm/s, respectively. On Recombinant human ASGPR, the koff was found to be 0.0086 ± 0.002 s⁻¹. Also, the kon on Recombinant human ASGPR is 40.7 ± 6.3 M⁻¹ s⁻¹. The Kd at Recombinant human ASGPR (KD) stood at 211 ± 70.9 µM. The “P app, Control (compound only)” value in the data set with Caco-2 cell monolayers (Caco-2 cell monolayer, 200 µM, n = 3) is given as 17.20±12.40 ×10^−7 cm/s. In the data set “Plasma stability assay”, the remaining at 2 h, 0.5 mg/mL is roughly 70%.
`OC[C@@H](O)[C@@H](O)[C@H](O)[C@H](O)CO` [^14C mannitol, [^14C]-D-mannitol, reference compound]: the “apparent permeability (Papp)” value with Caco-2 cell monolayers (Caco-2 monolayers, apical to basolateral, compound only, values in text) was 4.4×10^−9 (±3.86) cm/s.
As to `OC[C@H]1O[C@@H](O[C@H]2[C@H](O)[C@@H](O)[C@H](O)O[C@@H]2CO)[C@H](O)[C@@H](O)[C@H]1O` [D-Lactose, reference compound], the Kd on Recombinant human ASGPR (SPR, immobilized ASGPR, 25°C, read-out: KD) was determined as 19.2 ± 3.28 µM.
With `CC(C)C[C@H](NC(=O)[C@H](Cc1ccccc1)NC(=O)CNC(=O)CNC(=O)[C@H](Cc1ccc(O)cc1)NC(=O)CCC(=O)N[C@@H]1O[C@H](CO)[C@@H](O[C@@H]2O[C@H](CO)[C@H](O[C@H]3O[C@H](CO)[C@H](O)[C@H](O)[C@H]3O)[C@H](O)[C@H]2O)[C@H](O)[C@H]1O)C(N)=O` [Gal-Lac-Enk, N^1-Leu-enkephalin-N^4-(α-D-galactopyranosyl-(1→4)-β-D-galactopyranosyl-(1→4)-β-D-glucopyranosyl)succinamide], in [1], the Papp A→B came out at 0.561 ± 0.137 ×10⁻⁶ cm/s. At Recombinant human ASGPR, the “increase in binding affinity compared to the peptide alone” value was “two-fold”, the koff was 0.0041 ± 0.003 s⁻¹ and the kon amounted to 45 ± 28.9 M⁻¹ s⁻¹. Besides, on Recombinant human ASGPR (KD), the Kd was 91.1 ± 22.1 µM. The Papp A→B at 150 min, 200 µM in data set [2] is 0.44 ± 0.163 ×10⁻⁶ cm/s. For the same molecule, the Papp A→B in [3] was 0.712 ± 0.137 ×10⁻⁶ cm/s. Besides, the remaining at 2 h in “Plasma stability assay” (plasma) is roughly 100%.

B1: Asialoglycoprotein receptor (ASGPR, carbohydrate-binding subunit), P07306 (protein)
chain: MTKEYQDLQHLDNEESDHHQLRKGPPPPQPLLQRLCSGPRLLLLSLGLSLLLLVVVCVIGSQNSQLQEELRGLRETFSNFTASTEAQVKGLSTQGGNVGRKMKSLESQLEKQQKDLSEDHSSLLLHVKQFVSDLRSLSCQMAALQGNGSERTCCPVNWVEHERSCYWFSRSGKAWADADNYCRLEDAHLVVVTSWEEQKFVQHHIGPVNTWMGLHDQNGPWKWVDGTDYETGFKNWRPEQPDDWYGHGLGGGEDCAHFTDDGRWNDDVCQRPYRWVCETELDKASQEPPLL
As for B1, the Kd was found to be 277 µM in data set [4], 91.1 µM in data set [5], 211 µM with Lac-Enk (Homo sapiens) and 219 µM with Gal-Enk (Homo sapiens).
